{"source": "paper PMC11881906", "about": "“Development of xanthone derivatives as effective broad-spectrum antimicrobials: Disrupting cell wall and inhibiting DNA synthesis” (Science Advances, 2025)", "key": {"E. coli ATCC 25922": {"tested_on": "E. coli ATCC 25922", "assay": "RNA-seq transcriptome response", "format": "cell-based, Escherichia coli", "settings": "4× MIC, 2 hours", "procedure": "After exposure, 1-ml aliquots of cells were immediately pelleted at 4°C by centrifugation for 2 min at 2000 rpm. The supernatants were removed and immediately frozen in liquid nitrogen. The samples were stored at −80°C for later total RNA isolation. Total RNA was extracted using the bacterial RNA kit (Omega Bio-Tek, USA) according to the manufacturer’s instructions. The RNA integrity number values were obtained to assess RNA quality using an Agilent Genomics 2200 Tape Station instrument.\nA total amount of 2 to 5 ng of the RNA per sample was executed as the input material to construct each cDNA library for RNA-seq using the NEBNext Ultra Directional RNA Library prep kit from Illumina. The quality of the resulting libraries was checked using Agilent High Sensitivity DNA chips to ensure proper library size distribution and the absence of small adapters.\nRead mapping was aligned using Bowtie2 ([74]). HTSeq v0.6.1 was used for quantification of expression levels ([75]). DESeq2 on the R package (v1.12.4) was used to calculate DEGs. Differential expression was computed using edgeR: exactTest for each treatment versus the untreated control ([76]). The E. coli database used for mapping was GCF_017357505.1_ASM1735750v1_genomic.fna. Both the GO and KEGG (KEGG Ortholog database) enrichment analyses were done with the Fisher’s exact test. All P values were adjusted with the Benjamini-Hochberg procedure to generate false discovery rates (adjusted P values). GO enrichment analysis was carried out using the clusterProfiler package on the R platform ([77]). KEGG pathway mapping and figure generation were performed with the PathView website ([78]). COG of protein databases were searched with an E value of 1e^-5. For hierarchal clustering analysis of gene expression, the gene expression levels were normalized to z scores of log10 (FPKM + 1), where FPKM is fragments per kilobase per million. For hierarchal clustering analysis of the regulation of transcription factors, the unweighted pair group method with arithmetic mean (UPGMA) method was used as the clustering method. […] Volcano plots were generated by plot_volcano from soothsayer (https://github.com/jolespin/soothsayer) in Python v.3.6.6. Directed networks were constructed and plotted using NetworkX and Matplotlib Python packages, respectively. Hierarchical clustering analysis and heatmap calculation were performed with the pheatmap package on the R platform. The umap package on the R platform was used for uniform manifold approximation and projection (UMAP) analysis of FPKM vectors of each transcriptome. The figures were created via the ggplot2 package ([79])."}, "S. aureus ATCC 29213": {"tested_on": "S. aureus ATCC 29213", "assay": "Murine corneal infection model", "format": "in vivo, mice", "settings": "topical, four times daily for 3 days; XT17 5 mg/ml, vancomycin 50 mg/ml; vs 5% glucose control", "description": "(§1) Female C57BL/6 mice (average weight, 20 g) were used for the in vivo efficacy experiments. Mice were housed in a specific pathogen–free facility on a 12-hour light-dark cycle, under the condition with ad libitum access to irradiation sterilized rodent diet and aseptic water. […]. These in vivo experiments were approved by the Experimental Animal Center of South China Agricultural University and conducted in accordance with the policies of the Ministry of Health of China.\n(§2) The in vivo efficacy of compound XT17 was investigated in a murine corneal infection model. Before infection, the mice were immunosuppressed with three intraperitoneal injections of cyclophosphamide (100 mg/kg) over 5 days. After anesthesia with 2.5% avertin (500 mg/kg, ip), the left corneas of mice were scratched with 15 μl of S. aureus ATCC 29213 or P. aeruginosa ATCC 9027 (approximately 5 × 10^7 CFU/ml). Following 1 day of infection, the infected mice were randomly assigned into […] (n = 5) and subsequently administered with 0.5% compound XT17, 5% glucose solution, 5% vancomycin, or 0.3% gatifloxacin topically. S. aureus–caused murine corneal infections were treated four times a day for three consecutive days. Only 2 days of treatment were given for P. aeruginosa–caused murine corneal infections. On the first day, the drug was administered every 20 min for 1 hour and then three times at 2-hour intervals on the second day. The mice were given a 5% glucose solution as a negative control in the absence of any antimicrobial agent treatment. The infected corneas were collected after the mice were euthanized, and the number of viable bacteria was counted using MHA plates."}, "P. aeruginosa ATCC 9027": {"tested_on": "P. aeruginosa ATCC 9027", "assay": "Murine corneal infection model", "format": "in vivo, mice", "settings": "topical, 2 days; XT17 5 mg/ml, gatifloxacin 3 mg/ml; vs 5% glucose control", "description": "as §1, §2"}}, "data": [{"compound": "CC(C)=CCOc1cc(OCCCNC(=N)N)cc2oc3cc(OCCCNC(=N)N)ccc3c(=O)c12", "note": "[XT17]", "values": [{"measurement": "genes expressed", "setting": "E. coli ATCC 25922", "result": 4617, "unit": "genes"}, {"measurement": "Log2FC clbN (colibactin non-ribosomal peptide synthetase ClbN)", "setting": "E. coli ATCC 25922; vs untreated", "result": -2.7305}, {"measurement": "Log2FC cspE (transcription antiterminator/RNA stability regulator CspE)", "setting": "E. coli ATCC 25922; vs untreated", "result": -4.5456}, {"measurement": "Log2FC dnaE (DNA polymerase III subunit alpha)", "setting": "E. coli ATCC 25922; vs untreated", "result": 2.4033}, {"measurement": "Log2FC dnaN (DNA polymerase III subunit beta)", "setting": "E. coli ATCC 25922; vs untreated", "result": 2.4370}, {"measurement": "Log2FC dnaQ (DNA polymerase III subunit epsilon)", "setting": "E. coli ATCC 25922; vs untreated", "result": 2.6769}, {"measurement": "Log2FC dnaT (primosomal protein DnaT)", "setting": "E. coli ATCC 25922; vs untreated", "result": 1.8873}, {"measurement": "Log2FC dnaX (DNA polymerase III subunit gamma/tau)", "setting": "E. coli ATCC 25922; vs untreated", "result": 1.3272}, {"measurement": "Log2FC gyrA (DNA topoisomerase (ATP-hydrolyzing) subunit A)", "setting": "E. coli ATCC 25922; vs untreated", "result": 2.7733}, {"measurement": "Log2FC gyrB (DNA topoisomerase (ATP-hydrolyzing) subunit B)", "setting": "E. coli ATCC 25922; vs untreated", "result": 2.8529}, {"measurement": "Log2FC holB (DNA polymerase III subunit delta')", "setting": "E. coli ATCC 25922; vs untreated", "result": 3.5242}, {"measurement": "Log2FC holC (DNA polymerase III subunit chi)", "setting": "E. coli ATCC 25922; vs untreated", "result": 1.8432}, {"measurement": "Log2FC holD (DNA polymerase III subunit psi)", "setting": "E. coli ATCC 25922; vs untreated", "result": 2.6144}, {"measurement": "Log2FC parC (DNA topoisomerase IV subunit A)", "setting": "E. coli ATCC 25922; vs untreated", "result": 2.5193}, {"measurement": "Log2FC parE (DNA topoisomerase IV subunit B)", "setting": "E. coli ATCC 25922; vs untreated", "result": 2.3205}, {"measurement": "Log2FC priA (primosomal protein N')", "setting": "E. coli ATCC 25922; vs untreated", "result": 3.3285}, {"measurement": "Log2FC priB (primosomal replication protein N)", "setting": "E. coli ATCC 25922; vs untreated", "result": 5.8981}, {"measurement": "Log2FC priC (primosomal replication protein N'')", "setting": "E. coli ATCC 25922; vs untreated", "result": 2.6334}, {"measurement": "Log2FC recA (recombinase RecA)", "setting": "E. coli ATCC 25922; vs untreated", "result": 5.7854}, {"measurement": "Log2FC recB (exodeoxyribonuclease V subunit beta)", "setting": "E. coli ATCC 25922; vs untreated", "result": 2.0328}, {"measurement": "Log2FC recC (exodeoxyribonuclease V subunit gamma)", "setting": "E. coli ATCC 25922; vs untreated", "result": 2.4556}, {"measurement": "Log2FC recF (DNA replication/repair protein RecF)", "setting": "E. coli ATCC 25922; vs untreated", "result": 1.6106}, {"measurement": "Log2FC recG (ATP-dependent DNA helicase RecG)", "setting": "E. coli ATCC 25922; vs untreated", "result": 1.6673}, {"measurement": "Log2FC recJ (single-stranded-DNA-specific exonuclease RecJ)", "setting": "E. coli ATCC 25922; vs untreated", "result": 4.2947}, {"measurement": "Log2FC recO (DNA repair protein RecO)", "setting": "E. coli ATCC 25922; vs untreated", "result": 2.8669}, {"measurement": "Log2FC recR (recombination mediator RecR)", "setting": "E. coli ATCC 25922; vs untreated", "result": 2.2758}, {"measurement": "Log2FC ruvA (Holliday junction branch migration protein RuvA)", "setting": "E. coli ATCC 25922; vs untreated", "result": 3.9191}, {"measurement": "Log2FC ruvB (Holliday junction branch migration DNA helicase RuvB)", "setting": "E. coli ATCC 25922; vs untreated", "result": 4.1938}, {"measurement": "Log2FC ruvC (crossover junction endodeoxyribonuclease RuvC)", "setting": "E. coli ATCC 25922; vs untreated", "result": 2.7878}, {"measurement": "Log2FC ssb1 (single-stranded DNA-binding protein SSB1)", "setting": "E. coli ATCC 25922; vs untreated", "result": 3.2652}, {"measurement": "down-regulated genes", "setting": "E. coli ATCC 25922; vs untreated", "result": 348, "unit": "genes"}, {"measurement": "up-regulated genes", "setting": "E. coli ATCC 25922; vs untreated", "result": 2885, "unit": "genes"}, {"measurement": "differentially expressed genes", "setting": "E. coli ATCC 25922; vs untreated, P < 0.05, absolute log2 fold change > 1", "result": 3233, "unit": "genes"}, {"measurement": "log reduction in viable bacterial colonies in the infected corneas", "setting": "S. aureus ATCC 29213", "result": 6.10, "unit": "log"}, {"measurement": "log reduction in viable bacterial colonies in the infected corneas", "setting": "P. aeruginosa ATCC 9027", "result": 2.88, "unit": "log"}]}]}
